# Data taken from patent US20260109708A1, “COMPOUNDS AND COMPOSITIONS USEFUL AS DEGRADERS OF MK2 KINASE” (Celgene Corporation, priority 2023, published 2026).
# Target: T1, p38a activated, mitogen-activated protein kinase-activated protein kinase 2 (MAPKAP-K2 or MK2) enzyme (Homo sapiens, UniProt P49137)
# T1 construct: purchased Invitrogen PV3317
# Experiment: MK2 OMNIA biochemical assay (AssayQuant continuous-read kinase assay)
# Settings: [MK-2]=0.05 nM, [ATP]=100 μM, [AQT0425]=10 μM
# From the text: Example 56.2. Mitogen-Activated Protein Kinase-Activated Protein Kinase 2 AssayQuant Technologies® Assay for Compound Potency Assessment (MK2 OMNIA Biochemical Assay)
# The protocol below describes a continuous-read kinase assay optimized to measure potency of compounds against p38a activated, mitogen-activated protein kinase-activated protein kinase 2 (MAPKAP-K2 or MK2) enzyme.
# A 1.25× stock solution of MK2 (PV3317, from Invitrogen) and a 5× stock solution of ATP and Sox conjugated peptide substrate, AQT0425 (CSKS-AQT0425B, from AssayQuant Technologies), were prepared in 1× kinase reaction buffer consisting of 50 mM HEPES, pH 7.5, 0.01% Brij-35, 0.55 mM EGTA, 10 mM MgCl2 and 1 mM DTT.
# 10 μL of the ATP and substrate solution mix was added to a Coming (3574) 384-well, white, non-binding surface microtiter plate containing 0.5 μL of serially diluted test compounds prepared in DMSO. The reactions were started with the addition of 40 μL of the enzyme solution and monitored every 71 seconds for 240 min at kex 360/λem 485 in a Synergy H4 plate reader from BioTek at room temperature.
# The initial linear portions of the net progress curves were fit according to a linear equation to yield the slope and percentage of inhibition (% inhibition) at each compound concentration. The net progress curves obtained during the entirety of reactions were also fit according to an ascending single-exponential equation (Eq. 1) to yield Vobs values at each compound concentration. Plots of % Inhibition versus degrader concentrations were fit according to a dose-response equation (Eq. 2) to generate IC50 and Hill slope values while plots of Vobs versus degrader concentration were fit according to Equation 3 (Eq. 3) to generate apparent Kinact values using the GraphPad PRISM software.
# where F is the fluorescence intensity from the plate reader, V0 is a constant reflecting the relationship between the instrument readout and product concentration, t is time, e is Euler's number, and Vobs is the observed inactivation rate constant.
# where % Inhibition is percentage of inhibition, IC50 is half maximal inhibitory concentration, [I] is the degraders concentration, and n is the Hill slope.
# where kobs is the observed inactivation rate constant, Kinact is the apparent inactivation rate constant, K1 is the apparent inhibition constant, and [I] is the degrader concentration.
# T1 sequence (P49137 whole entry): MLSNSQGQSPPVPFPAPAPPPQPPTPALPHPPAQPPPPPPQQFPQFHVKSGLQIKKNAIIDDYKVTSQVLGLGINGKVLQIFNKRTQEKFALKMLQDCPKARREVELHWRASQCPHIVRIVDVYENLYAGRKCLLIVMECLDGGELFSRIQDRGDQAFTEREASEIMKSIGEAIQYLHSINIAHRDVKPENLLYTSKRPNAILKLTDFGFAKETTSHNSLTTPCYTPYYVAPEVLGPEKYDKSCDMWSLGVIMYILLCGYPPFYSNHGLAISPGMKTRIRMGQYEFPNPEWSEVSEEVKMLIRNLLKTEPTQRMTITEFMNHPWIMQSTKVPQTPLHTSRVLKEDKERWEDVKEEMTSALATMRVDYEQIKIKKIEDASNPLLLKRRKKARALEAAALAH
row,SMILES,IC50 [µM]
1,"C[C@@H]1CNc2c(sc3ccc4nc(-c5ccc(C(=O)N[C@H]6CC[C@H](CN7CCN(c8ccc(C9CCC(=O)NC9=O)cc8)CC7)CC6)cc5F)ccc4c23)C(=O)N1 (stereo partly drawn) [Ex 9, N-(trans-4-((4-(4-(2,6-Dioxopiperidin-3-yl)phenyl)piperazin-1-yl)methyl)cyclohexyl)-3-fluoro-4-((R)-10-methyl-8-oxo-9,10,11,12-tetrahydro-8H-[1,4]diazepino[5′,6′:4,5]thieno[3,2-f]quinolin-3-yl)benzamide]",< 0.15
2,"C[C@@H]1CNc2c(sc3ccc4nc(-c5ccc(C(=O)N[C@H]6CC[C@H](CCN7CCN(c8ccc(C9CCC(=O)NC9=O)cc8)CC7)CC6)cc5F)ccc4c23)C(=O)N1 (stereo partly drawn) [Ex 10, N-((trans)-4-(2-(4-(4-(2,6-Dioxopiperidin-3-yl)phenyl)piperazin-1-yl)ethyl)cyclohexyl)-3-fluoro-4-((R)-10-methyl-8-oxo-9,10,11,12-tetrahydro-8H-[1,4]diazepino[5′,6′:4,5]thieno[3,2-f]quinolin-3-yl)benzamide]",0.151 to 0.5
3,"C[C@@H]1CNc2c(sc3ccc4nc(-c5cccc(N6CC7CC(C6)N7CCN6CCN(c7ccc8c(C9CCC(=O)NC9=O)nn(C)c8c7)CC6)c5)ccc4c23)C(=O)N1 (stereo partly drawn) [Ex 15, 3-(1-Methyl-6-(4-(2-(3-(3-((R)-10-methyl-8-oxo-9,10,11,12-tetrahydro-8H-[1,4]diazepino[5′,6′:4,5]thieno[3,2-f]quinolin-3-yl)phenyl)-3,6-diazabicyclo[3.1.1]heptan-6-yl)ethyl)piperazin-1-yl)-1H-indazol-3-yl)piperidine-2,6-dione]",< 0.15
4,"C[C@@H]1CNc2c(sc3ccc4nc(-c5ccc(C(=O)NC6CCN(c7ccc8c(C9CCC(=O)NC9=O)nn(C)c8c7)CC6)cc5F)ccc4c23)C(=O)N1 (stereo partly drawn) [Ex 1, N-(1-(3-(2,6-dioxopiperidin-3-yl)-1-methyl-1H-indazol-6-yl)piperidin-4-yl)-3-fluoro-4-((R)-10-methyl-8-oxo-9,10,11,12-tetrahydro-8H-[1,4]diazepino[5′,6′:4,5]thieno[3,2-f]quinolin-3-yl)benzamide]",< 0.15
5,"C[C@@H]1CNc2c(sc3ccc4nc(-c5ccc(N6CCN(CCN7CCC(c8ccc(C9CCC(=O)NC9=O)cc8)CC7)CC6)cc5)ccc4c23)C(=O)N1 (stereo partly drawn) [Ex 20, 3-(4-(1-(2-(4-(4-((R)-10-Methyl-8-oxo-9,10,11,12-tetrahydro-8H-[1,4]diazepino[5′,6′:4,5]thieno[3,2-f]quinolin-3-yl)phenyl)piperazin-1-yl)ethyl)piperidin-4-yl)phenyl)piperidine-2,6-dione]",< 0.15
6,"C[C@@H]1CNc2c(sc3ccc4nc(-c5cnn(C6CN(CCN7CCN(c8ccc(C9CCC(=O)NC9=O)cc8)CC7)C6)c5)ccc4c23)C(=O)N1 (stereo partly drawn) [Ex 51, 3-(4-(4-(2-(3-(4-((R)-10-Methyl-8-oxo-9,10,11,12-tetrahydro-8H-[1,4]diazepino[5′,6′:4,5]thieno[3,2-f]quinolin-3-yl)-1H-pyrazol-1-yl)azetidin-1-yl)ethyl)piperazin-1-yl)phenyl)piperidine-2,6-dione]",< 0.15
7,"C[C@@H]1CNc2c(sc3ccc4nc(-c5ccc(N6CCC(CN7CCN(c8ccc(C9CCC(=O)NC9=O)cc8)CC7)CC6)cc5)ccc4c23)C(=O)N1 (stereo partly drawn) [Ex 38, 3-(4-(4-((1-(4-((R)-10-Methyl-8-oxo-9,10,11,12-tetrahydro-8H-[1,4]diazepino[5′,6′:4,5]thieno[3,2-f]quinolin-3-yl)phenyl)piperidin-4-yl)methyl)piperazin-1-yl)phenyl)piperidine-2,6-dione]",0.151 to 0.5
8,"C[C@@H]1COc2c(sc3ccc4nc(-c5cccc(N6CCN(CCN7CCN(c8ccc(C9CCC(=O)NC9=O)cc8)CC7)CC6)c5)ccc4c23)C(=O)N1 (stereo partly drawn) [Ex 16, 3-(4-(4-(2-(4-(3-((R)-10-Methyl-8-oxo-8,9,10,11-tetrahydro-[1,4]oxazepino[7′,6′:4,5]thieno[3,2-f]quinolin-3-yl)phenyl)piperazin-1-yl)ethyl)piperazin-1-yl)phenyl)piperidine-2,6-dione]",< 0.15
9,"C[C@@H]1CNc2c(sc3ccc4nc(-c5ccc(N6CCN(CCN7CCN(c8ccc(C9CCC(=O)NC9=O)cc8)CC7)CC6)cc5)ccc4c23)C(=O)N1 (stereo partly drawn) [Ex 22, 3-(4-(4-(2-(4-(4-((R)-10-Methyl-8-oxo-9,10,11,12-tetrahydro-8H-[1,4]diazepino[5′,6′:4,5]thieno[3,2-f]quinolin-3-yl)phenyl)piperazin-1-yl)ethyl)piperazin-1-yl)phenyl)piperidine-2,6-dione]",0.151 to 0.5
10,"C[C@@H]1CNc2c(sc3ccc4nc(-n5cc(C6CN(CCN7CCN(c8ccc(C9CCC(=O)NC9=O)cc8)CC7)C6)nn5)ccc4c23)C(=O)N1 (stereo partly drawn) [Ex 53, 3-(4-(4-(2-(3-(1-((R)-10-Methyl-8-oxo-9,10,11,12-tetrahydro-8H-[1,4]diazepino[5′,6′:4,5]thieno[3,2-f]quinolin-3-yl)-1H-1,2,3-triazol-4-yl)azetidin-1-yl)ethyl)piperazin-1-yl)phenyl)piperidine-2,6-dione]",< 0.15
11,"C[C@@H]1COc2c(sc3ccc4nc(-c5ccc(N6CCN(CCN7CCN(c8ccc(C9CCC(=O)NC9=O)cc8)CC7)CC6)cc5)ccc4c23)C(=O)N1 (stereo partly drawn) [Ex 25, 3-(4-(4-(2-(4-(4-((R)-10-Methyl-8-oxo-8,9,10,11-tetrahydro-[1,4]oxazepino[7′,6′:4,5]thieno[3,2-f]quinolin-3-yl)phenyl)piperazin-1-yl)ethyl)piperazin-1-yl)phenyl)piperidine-2,6-dione]",0.151 to 0.5
12,"C[C@@H]1CNc2c(sc3ccc4nc(-c5ccc(C(=O)NCCN6CCN(c7ccc(C8CCC(=O)NC8=O)cc7)CC6)cc5F)ccc4c23)C(=O)N1 (stereo partly drawn) [Ex 8, N-(2-(4-(4-(2,6-Dioxopiperidin-3-yl)phenyl)piperazin-1-yl)ethyl)-3-fluoro-4-((R)-10-methyl-8-oxo-9,10,11,12-tetrahydro-8H-[1,4]diazepino[5′,6′:4,5]thieno[3,2-f]quinolin-3-yl)benzamide]",< 0.15
13,"C[C@@H]1CNc2c(sc3ccc4nc(-c5cnn(C6CCN(CCN7CCN(c8ccc(C9CCC(=O)NC9=O)cc8)CC7)CC6)c5)ccc4c23)C(=O)N1 (stereo partly drawn) [Ex 43, 3-(4-(4-(2-(4-(4-((R)-10-Methyl-8-oxo-9,10,11,12-tetrahydro-8H-[1,4]diazepino[5′,6′:4,5]thieno[3,2-f]quinolin-3-yl)-1H-pyrazol-1-yl)piperidin-1-yl)ethyl)piperazin-1-yl)phenyl)piperidine-2,6-dione]",< 0.15
14,"C[C@@H]1CNc2c(sc3ccc4nc(-c5ccc(N6CC(CCN7CCN(c8ccc(C9CCC(=O)NC9=O)cc8)CC7)C6)cc5)ccc4c23)C(=O)N1 (stereo partly drawn) [Ex 42, 3-(4-(4-(2-(1-(4-((R)-10-Methyl-8-oxo-9,10,11,12-tetrahydro-8H-[1,4]diazepino[5′,6′:4,5]thieno[3,2-f]quinolin-3-yl)phenyl)azetidin-3-yl)ethyl)piperazin-1-yl)phenyl)piperidine-2,6-dione]",< 0.15
15,"C[C@@H]1CNc2c(sc3ccc4nc(-c5ccc(C6=CCN(CCN7CCN(c8ccc(C9CCC(=O)NC9=O)cc8)CC7)CC6)cc5)ccc4c23)C(=O)N1 (stereo partly drawn) [Ex 31, 3-(4-(4-(2-(4-(4-((R)-10-Methyl-8-oxo-9,10,11,12-tetrahydro-8H-[1,4]diazepino[5′,6′:4,5]thieno[3,2-f]quinolin-3-yl)phenyl)-3,6-dihydropyridin-1(2H)-yl)ethyl)piperazin-1-yl)phenyl)piperidine-2,6-dione]",< 0.15
16,"C[C@@H]1CNc2c(sc3ccc4nc(-c5ccc(N6CCN(C(=O)C(=O)N7CCN(c8ccc(C9CCC(=O)NC9=O)cc8)CC7)CC6)cc5)ccc4c23)C(=O)N1 (stereo partly drawn) [Ex 23, 3-(4-(4-(2-(4-(4-((R)-10-Methyl-8-oxo-9,10,11,12-tetrahydro-8H-[1,4]diazepino[5′,6′:4,5]thieno[3,2-f]quinolin-3-yl)phenyl)piperazin-1-yl)-2-oxoacetyl)piperazin-1-yl)phenyl)piperidine-2,6-dione]",< 0.15
17,"C[C@@H]1CNc2c(sc3ccc4nc(-c5cn(C6CCN(CCN7CCN(c8ccc(C9CCC(=O)NC9=O)cc8)CC7)CC6)nn5)ccc4c23)C(=O)N1 (stereo partly drawn) [Ex 49, 3-(4-(4-(2-(4-(4-((R)-10-Methyl-8-oxo-9,10,11,12-tetrahydro-8H-[1,4]diazepino[5′,6′:4,5]thieno[3,2-f]quinolin-3-yl)-1H-1,2,3-triazol-1-yl)piperidin-1-yl)ethyl)piperazin-1-yl)phenyl)piperidine-2,6-dione]",< 0.15
18,"C[C@@H]1COc2c(sc3ccc4nc(-c5ccc(C6CN(CCN7CCN(c8ccc(C9CCC(=O)NC9=O)cc8)CC7)C6)cc5)ccc4c23)C(=O)N1 (stereo partly drawn) [Ex 33, 3-(4-(4-(2-(3-(4-((R)-10-Methyl-8-oxo-8,9,10,11-tetrahydro-[1,4]oxazepino[7′,6′:4,5]thieno[3,2-f]quinolin-3-yl)phenyl)azetidin-1-yl)ethyl)piperazin-1-yl)phenyl)piperidine-2,6-dione]",< 0.15
